Test results published in PMC9138994 (Biomolecules, 2022).

Assays:
human 5-HT7b = target: T1, human 5-HT7b (Homo sapiens, UniProt P34969); test: Radioligand displacement assay at 5-HT7 ([3H]-5-CT, HEK293 cells); type: binding; settings: HEK293 cells stably expressing h5-HT7, read-out: Ki (n), 5-HT7
T1 construct: expressed in transfected cells; host or cells: HEK293
Method: (§1) HEK293 cells with a stable expression of human 5-HT1A, 5-HT6, 5-HT7b, and D2L (prepared with the use of Lipofectamine 2000), or CHO-K1 cells with plasmids containing the sequence coding for the human serotonin 5-HT2A receptor (PerkinElmer), were maintained at 37 °C in a humidified atmosphere with 5% CO2 and grown in Dulbecco’s Modified Eagle Medium containing 10% dialyzed fetal bovine serum and 500 µg/mL G418 sulfate. For membrane preparation, cells were subcultured in 150 cm^2 flasks, grown to 90% confluence, washed twice with prewarmed to 37 °C phosphate buffered saline (PBS) and pelleted by centrifugation (200× g) in PBS containing 0.1 mM EDTA and 1 mM dithiothreitol. Prior to membrane preparation, the pellets were stored at −80 °C.
(§2) Cell pellets were thawed and homogenized in 10 volumes of assay buffer using an Ultra Turrax tissue homogenizer, and were then centrifuged twice at 35,000× g for 15 min at 4 °C, with incubations for 15 min at 37 °C in between. […] The process of equilibration was terminated by rapid filtration through Unifilter plates with a 96-well cell harvester and the radioactivity retained on the filters was quantified on a Microbeta plate reader (PerkinElmer, Waltham, MA, USA). […] The inhibition constants (Ki) were calculated from the Cheng-Prusoff equation [38]. Results are expressed as means of two separate experiments.

human 5-HT1A = target: T2, human 5-HT1A (Homo sapiens, UniProt P08908); test: Radioligand displacement assay at 5-HT1A ([3H]-8-OH-DPAT, HEK293 cells); type: binding; settings: HEK293 cells stably expressing h5-HT1A, read-out: Ki (n), 5-HT1A
T2 construct: expressed in transfected cells; host or cells: HEK293
T2 sequence (P08908 1-422): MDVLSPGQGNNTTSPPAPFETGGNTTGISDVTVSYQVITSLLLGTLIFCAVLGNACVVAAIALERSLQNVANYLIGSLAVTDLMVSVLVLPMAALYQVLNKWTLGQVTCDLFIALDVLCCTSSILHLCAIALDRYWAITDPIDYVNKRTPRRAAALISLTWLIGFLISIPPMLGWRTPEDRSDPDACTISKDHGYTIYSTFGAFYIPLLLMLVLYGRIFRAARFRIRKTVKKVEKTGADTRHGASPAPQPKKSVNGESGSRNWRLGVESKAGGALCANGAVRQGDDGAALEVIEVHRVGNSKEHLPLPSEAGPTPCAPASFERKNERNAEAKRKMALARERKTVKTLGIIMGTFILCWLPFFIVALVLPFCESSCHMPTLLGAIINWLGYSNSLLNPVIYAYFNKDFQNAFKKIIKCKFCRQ
Method: as §1, §2

C57BL/6 mice = test: Open field test (OFT); type: in vivo; settings: for time spent in the center of the arena in OFT (anxiety level) / number of total line crossings in OFT (locomotor activity): i.p. pretreatment, 10 min test session; for time spent in the center of the arena in OFT (anxiety level): ST-2300 10 or 15 mg/kg, PIM 5–15 mg/kg, DZP 1 mg/kg, vs controls; for number of total line crossings in OFT (locomotor activity): ST-2300 or PIM 5–15 mg/kg, C57BL/6 mice
Method: Inbred adult male C57BL/6 mice (aged 10–12 weeks and weighing 20–25 g) were obtained from the animal facility in the College of Medicine and Health Sciences, United Arab Emirates University. The animals were maintained in a separate air-conditioned room with controlled temperature and humidity (24 ± 2 °C and 55 ± 15%, respectively), with a 12 h light/dark cycle, and ad libitum to food and water. All the experiments were performed between 9.00 am and 3.00 pm. The procedures were approved by the Institutional Animal Ethics Committee of College of Medicine and Health Sciences/United Arab Emirates University (Approval No. ERA-2019-6010). To reduce the suffering of the animals, a minimum number of animals were used in this study, whereas the objectives were not compromised.
These experiments provide the first behavioral assessment of the ST-2300 in anxiety-like and depression-like behaviors in mice. All doses are expressed in terms of the free base of all test compounds. The drugs used in the current study were dissolved in saline and injected i.p. at a volume of 1 mL/kg. All experimental procedures were conducted in a blinded fashion in which the experimenter was uninformed about the specific treatment groups to which an animal group belonged. Saline, ST-2300 (5, 10, and 15 mg/kg), PIM (5, 10, and 15 mg/kg), FLX (10 mg/kg), RAM (10 mg/kg), and DZP (1 mg/kg) were injected i.p. 30–45 min before the beginning of the behavioral experiments.
To analyze the effect of ST-2300 on locomotion and anxiety behaviors in animals, OFT was carried out. In addition to locomotor activity, the OFT is usually used to measure anxiety-like behaviors in experimental rodents. The test provides a unique opportunity to systematically assess novel environment exploration, general locomotor activity, and provide an initial screen for anxiety-related behavior in experimental rodents. The OF box consisted of a square box (45 × 45 × 30 cm). A 23 × 23 cm area in the center region was defined as the central arena, and the remaining area was defined as periphery area. The mice with a higher degree of anxiety prefer to stay closer to the walls of the box and spend less time in the center, whereas increased time spent in the central area indicates low anxiety level and high exploratory behaviors. The first 5 min of the experiment were considered as habituation, followed by 10 min test session. Total distance moved in the whole arena, time spent in the center, and in the periphery were recorded for 10 min using a charge-coupled, camera-assisted, motion-tracking apparatus and software (EthoVision 3.1, Noldus Information Technology, Wageningen, The Netherlands). After each mouse completed the test, the OF chamber was cleaned thoroughly with 70% (volume/volume; vol/vol) alcohol.

T1 sequence (P34969 1-432): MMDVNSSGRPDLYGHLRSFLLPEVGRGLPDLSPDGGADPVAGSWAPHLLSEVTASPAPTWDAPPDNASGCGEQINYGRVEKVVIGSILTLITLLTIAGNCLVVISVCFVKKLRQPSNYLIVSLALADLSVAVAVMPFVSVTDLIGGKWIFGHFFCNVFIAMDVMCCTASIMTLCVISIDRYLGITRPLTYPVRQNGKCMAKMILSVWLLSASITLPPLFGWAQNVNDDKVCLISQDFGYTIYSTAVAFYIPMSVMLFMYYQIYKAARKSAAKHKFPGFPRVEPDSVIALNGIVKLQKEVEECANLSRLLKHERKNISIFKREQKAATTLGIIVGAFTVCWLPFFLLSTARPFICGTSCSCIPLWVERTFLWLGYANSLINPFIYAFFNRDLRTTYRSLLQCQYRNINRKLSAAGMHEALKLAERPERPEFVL

Structure (SMILES) | Ki (human 5-HT7b) [µM] | Ki (human 5-HT1A) [µM] | time spent in the center of the arena in OFT (anxiety level) (C57BL/6 mice) | number of total line crossings in OFT (locomotor activity) (C57BL/6 mice) | time spent in the center in OFT, co-administration of RAM (C57BL/6 mice; ST-2300 10 mg/kg i.p. co-administered with RAM 10 mg/kg i.p.)
CC(C)COc1ccc(CNC(=O)N(Cc2ccc(F)cc2)C2CCN(C)CC2)cc1 [Pimavanserin, reference compound] | > 10 | > 10 | failed to provide any appreciable effects on the anxiety levels | did not alter the number of total line crossings | –
CN1CCC(N(Cc2ccc(F)cc2)C(=O)NCc2ccc(OCCCN3CCCCC3)cc2)CC1 [ST-2300, 1-(4-Fluorobenzyl)-1-(1-methylpiperidin-4-yl)-3-{4-[3-(piperidin-1-yl)propoxy]benzyl}urea] | > 10 | > 10 | dose-dependent increase of time spent in the center of the arena | did not alter the number of total line crossings | could not be reversed by co-administration with RAM
